Assay results taken from patent US7317007B2, “Benzothiazole derivatives with activity as adenosine receptor ligands” (Hoffmann-La Roche Inc., priority 2000, dated 2008).
Counter-ions that a name gives are not always drawn.

Each molecule was assayed against T1, human adenosine A2A receptor (Homo sapiens, UniProt P29274) (assay: [3H]-SCH-58261 binding assay at the human adenosine A2A receptor). Conditions: not given.
T1 construct: expressed in transfected cells; host or cells: CHO cells, Semliki Forest virus expression system; washed membrane pellet used
Description: Human Adenosine A2A Receptor
The human adenosine A2A receptor was recombinantly expressed in chinese hamster ovary (CHO) cells using the semliki forest virus expression system. Cells were harvested, washed twice by centrifugation, homogenised and again washed by centrifugation. The final washed membrane pellet was suspended in a Tris (50 mM) buffer containing 120 mM NaCl, 5 mM KCl, 2 mM CaCl2 and 10 mM MgCl2 (pH 7.4) (buffer A). The [^3H]-SCH-58261 (Dionisotti et al., 1997, Br J Pharmacol 121, 353; 1 nM) binding assay was carried out in 96-well plates in the presence of 2.5 μg of membrane protein, 0.5 mg of Ysi-poly-1-lysine SPA beads and 0.1 U adenosine deaminase in a final volume of 200 μl of buffer A. Non-specific binding was defined using xanthine amine congener (XAC; 2 μM). Compounds were tested at 10 concentrations from 10 μM-0.3 nM. All assays were conducted in duplicate and repeated at least two times. Assay plates were incubated for 1 hour at room temperature before centrifugation and then bound ligand determined using a Packard Topcount scintillation counter. IC50 values were calculated using a non-linear curve fitting program and Ki values calculated using the Cheng-Prussoff equation.

T1 sequence (P29274 whole entry): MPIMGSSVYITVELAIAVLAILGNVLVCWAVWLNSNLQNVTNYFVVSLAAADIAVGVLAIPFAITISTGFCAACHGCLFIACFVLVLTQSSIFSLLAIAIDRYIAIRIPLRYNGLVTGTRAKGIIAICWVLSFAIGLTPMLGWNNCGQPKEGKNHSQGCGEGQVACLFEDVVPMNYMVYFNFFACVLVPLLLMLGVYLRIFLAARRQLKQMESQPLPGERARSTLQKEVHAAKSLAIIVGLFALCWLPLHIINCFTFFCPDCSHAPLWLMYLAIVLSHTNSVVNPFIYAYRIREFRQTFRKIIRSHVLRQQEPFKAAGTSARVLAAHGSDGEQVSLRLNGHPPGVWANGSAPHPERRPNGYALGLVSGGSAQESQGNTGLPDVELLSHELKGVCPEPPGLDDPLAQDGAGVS

For `COc1ccc(N2CCOCC2)c2sc(NC(=O)N3CCC(=O)CC3)nc12` [Example 342, 4-Oxo-piperidine-1-carboxylic acid (4-methoxy-7-morpholin-4-yl-benzothiazol-2-yl)-amide], which Ki is on record?
The Ki was 3.16 nM.

Same assay, conditions: read-out: pKi value (converted)

For `CNCc1cccc(C(=O)Nc2nc3c(OC)ccc(N4CCOCC4)c3s2)c1` [Example 279, N-(4-Methoxy-7-morpholin-4-yl-benzothiazol-2-yl)-3-methylaminomethyl-benzamide], which Ki is on record?
Its Ki is 1.58 nM.

With `COc1ccc(N2CCOCC2)c2sc(NC(=O)c3ccc(C(F)(F)F)cc3)nc12` [Example 271, N-(4-Methoxy-7-morpholin-4-yl-benzothiazol-2-yl)-4-trifluoromethyl-benzamide] as the molecule, how does the Ki read?
Its Ki is 2.51 nM.

Which Ki does the source give for `CCOCCN(CC)Cc1ccc(C(=O)Nc2nc3c(OC)ccc(N4CCOCC4)c3s2)cc1` [Example 301, 4-{[(2-Ethoxy-ethyl)-ethyl-amino]-methyl}-N-(4-methoxy-7-morpholin-4-yl-benzothiazol-2-yl)-benzamide] here?
The Ki was 3.16 nM.

How did the Ki turn out when `COc1ccc(N2CCOCC2)c2sc(NC(=O)c3ccc(Cl)c(CN4CCCC4)c3)nc12` [Example 283, 4-Chloro-N-(4-methoxy-7-morpholin-4-yl-benzothiazol-2-yl)-3-pyrrolidin-1-ylmethyl-benzamide] was run?
The Ki was 1 nM.

How did the Ki turn out when `COc1ccc(N2CCOCC2)c2sc(NC(=O)c3ccc(CN4CCN(C)CC4)cc3)nc12` [Example 309, N-(4-Methoxy-7-morpholin-4-yl-benzothiazol-2-yl)-4-(4-methyl-piperazin-1-yl-methyl)-benzamide] was run?
The Ki was 3.16 nM.

For `COc1ccc(N2CCOCC2)c2sc(NC(=O)c3cccc(CN4CCCC4)c3)nc12` [Example 289, N-(4-Methoxy-7-morpholin-4-yl-benzothiazol-2-yl)-3-pyrrolidin-1-ylmethyl-benzamide], which Ki is on record?
The Ki was 1.26 nM.

`COc1ccc(-c2ccccc2)c2sc(NC(=O)N3CCOCC3)nc12` [Example 157, Morpholine-4-carboxylic acid (4-methoxy-7-phenyl-benzothiazol-2-yl)-amide] was tested. Which Ki did it give?
Its Ki is 1.26 nM.

How did the Ki turn out when `COc1ccc(-c2ccccc2)c2sc(NC(=O)c3ccc(Cn4ccnc4)cc3)nc12` [Example 100, 4-Imidazol-1-ylmethyl-N-(4-methoxy-7-phenyl-benzothiazol-2-yl)-benzamide hydrochloride salt (1:1)] was run?
The Ki was 0.501 nM.

`COc1ccc(N2CCOCC2)c2sc(NC(=O)C3CCN(C(=O)OC(C)(C)C)CC3)nc12` [Example 326, 4-(4-Methoxy-7-morpholin-4-yl-benzothiazol-2-ylcarbamoyl)-piperidine-1-carboxylic acid tert-butyl ester] was tested. Which Ki did it give?
Its Ki is 3.16 nM.

`COCCOCc1ccc(C(=O)Nc2nc3c(OC)ccc(N4CCOCC4)c3s2)cc1` [Example 314, 4-(2-Methoxy-ethoxymethyl)-N-(4-methoxy-7-morpholin-4-yl-benzothiazol-2-yl)-benzamide] was tested. Which Ki did it give?
The Ki was 3.16 nM.

`COCCNCc1cc(C(=O)Nc2nc3c(OC)ccc(N4CCOCC4)c3s2)ccc1Cl` [Example 282, 4-Chloro-3-[(2-methoxy-ethylamino)-methyl]-N-(4-methoxy-7-morpholin-4-yl-benzothiazol-2-yl)-benzamide] was tested. Which Ki did it give?
The Ki was 2.51 nM.

How did the Ki turn out when `COc1ccc(N2CCOCC2)c2sc(NC(=O)c3ccccc3)nc12` [Example 277, N-(4-Methoxy-7-morpholin-4-yl-benzothiazol-2-yl)-benzamide] was run?
Its Ki is 2 nM.

How did the Ki turn out when `COc1ccc(-c2csc(-c3ccc(C)nc3)n2)c2sc(NC(=O)N3CCOCC3)nc12` [Example 258] was run?
The Ki was 1.26 nM.

Which Ki does the source give for `CNCc1cc(C(=O)Nc2nc3c(OC)ccc(N4CCOCC4)c3s2)ccc1Cl` [Example 280, 4-Chloro-N-(4-methoxy-7-morpholin-4-yl-benzothiazol-2-yl)-3-methylaminomethyl-benzamide] here?
The Ki was 2 nM.

For `COc1ccc(N2CCOCC2)c2sc(NC(=O)c3ccc(F)cc3)nc12` [Example 275, 4-Fluoro-N-(4-methoxy-7-morpholin-4-yl-benzothiazol-2-yl)-benzamide], which Ki is on record?
Its Ki is 2 nM.

`COc1ccc(-c2ccccc2)c2sc(NC(=O)c3ccc(CNCc4ccncc4)cc3)nc12` [Example 96, N-(4-Methoxy-7-phenyl-benzothiazol-2-yl)-4-{[(pyridin-4-ylmethyl)-amino]-methyl}-benzamide hydrochloride salt (1:2)] was tested. Which Ki did it give?
Its Ki is 1.58 nM.

With `COc1ccc(-c2ccccc2)c2sc(NC(=O)c3ccc(CN)cc3)nc12` [Example 121, 4-Aminomethyl-N-(4-methoxy-7-phenyl-benzothiazol-2-yl)-benzamide hydrochloride salt (1:1)] as the molecule, how does the Ki read?
Its Ki is 1 nM.

`COc1ccc(-c2cccc(N)c2)c2sc(NC(=O)c3ccc(C)s3)nc12` [Example 62, 5-Methyl-thiophene-2-carboxylic acid [7-(3-amino-phenyl)-4-methoxy-benzothiazol-2-yl]-amide] was tested. Which Ki did it give?
Its Ki is 0.794 nM.

For `COCc1ccc(C(=O)Nc2nc3c(OC)ccc(N4CCOCC4)c3s2)cc1` [Example 315, 4-Methoxymethyl-N-(4-methoxy-7-morpholin-4-yl-benzothiazol-2-yl)-benzamide], which Ki is on record?
The Ki was 2.51 nM.

With `COC(=O)N(C)Cc1ccc(C(=O)Nc2nc3c(OC)ccc(N4CCOCC4)c3s2)cc1` [Example 369, [4-(4-Methoxy-7-morpholin-4-yl-benzothiazol-2-ylcarbamoyl)-benzyl]-methyl-carbamic acid methyl ester] as the molecule, how does the Ki read?
The Ki was 0.631 nM.

With `COc1ccc(-c2ccccc2)c2sc(NC(=O)c3ccc(C)s3)nc12` [Example 3, 5-Methyl-thiophene-2-carboxylic acid (4-methoxy-7-phenyl-benzothiazol-2-yl)-amide] as the molecule, how does the Ki read?
Its Ki is 1.58 nM.

How did the Ki turn out when `COCCNCc1cccc(C(=O)Nc2nc3c(OC)ccc(N4CCOCC4)c3s2)c1` [Example 286] was run?
Its Ki is 1.58 nM.

How did the Ki turn out when `COCCN(C)Cc1ccc(C(=O)Nc2nc3c(OC)ccc(-c4csc(-c5ccc(C)nc5)n4)c3s2)cc1` [Example 238, 4-{[(2-Methoxy-ethyl)-methyl-amino]-methyl}-N-{4-methoxy-7-[2-(6-methyl-pyridin-3-yl)-thiazol-4-yl]-benzothiazol-2-yl}-benzamide] was run?
The Ki was 2 nM.

For `COc1ccc(-c2ccccc2)c2sc(NC(=O)c3ccc(F)cc3)nc12` [Example 23, 4-Fluoro-N-(4-methoxy-7-phenyl-benzothiazol-2-yl)-benzamide], which Ki is on record?
Its Ki is 1.26 nM.

With `CNCc1ccc(C(=O)Nc2nc3c(OC)ccc(N4CCOCC4)c3s2)cc1` [Example 292, N-(4-Methoxy-7-morpholin-4-yl-benzothiazol-2-yl)-4-methylaminomethyl-benzamide] as the molecule, how does the Ki read?
Its Ki is 1.58 nM.

`COc1ccc(-c2ccccc2)c2sc(NC(=O)c3ccncc3)nc12` [Example 36, N-(4-Methoxy-7-phenyl-benzothiazol-2-yl)-isonicotinamide] was tested. Which Ki did it give?
The Ki was 0.794 nM.

Which Ki does the source give for `COC(=O)Nc1nc2c(OC)ccc(-c3csc(-c4ccc(C)nc4)n3)c2s1` [Example 201, {4-Methoxy-7-[2-(6-methyl-pyridin-3-yl)-thiazol-4-yl]-benzothiazol-2-yl}-carbamic acid methyl ester] here?
Its Ki is 2.51 nM.

With `COc1ccc(-c2ccccc2)c2sc(NC(=O)c3ccc(CN4CC[C@H](N(C)C)C4)cc3)nc12` [Example 125, 4-(3 (S)-Dimethylamino-pyrrolidin-1-ylmethyl)-N-(4-methoxy-7-phenyl-benzothiazol-2-yl)-benzamide hydrochlorde salt (1:2)] as the molecule, how does the Ki read?
Its Ki is 1 nM.

How did the Ki turn out when `COc1ccc(-c2ccnc(C)c2)c2sc(NC(=O)c3ccc(C)s3)nc12` [Example 61, 5-Methyl-thiophene-2-carboxylic acid [4-methoxy-7-(2-methyl-pyridin-4-yl)-benzothiazol-2-yl]-amide] was run?
Its Ki is 1.26 nM.

How did the Ki turn out when `CCOCCNCc1ccc(C(=O)Nc2nc3c(OC)ccc(N4CCOCC4)c3s2)cc1` [Example 290, 4-[(2-Ethoxy-ethylamino)-methyl]-N-(4-methoxy-7-morpholin-4-yl-benzothiazol-2-yl)-benzamide] was run?
The Ki was 2.51 nM.

With `COc1ccc(-c2ccccc2)c2sc(NC(=O)c3ccc(CN4CCC(O)CC4)cc3)nc12` [Example 108, 4-(4-Hydroxy-piperidin-1-ylmethyl)-N-(4-methoxy-7-phenyl-benzothiazol-2-yl)-benzamide hydrochloride salt (1:1)] as the molecule, how does the Ki read?
Its Ki is 1.26 nM.

How did the Ki turn out when `COc1ccc(N2CCOCC2)c2sc(NC(=O)c3ccc(CSCCN(C)C)cc3)nc12` [Example 298, 4-(2-Dimethylamino-ethylsulfanylmethyl)-N-(4-methoxy-7-morpholin-4-yl-benzothiazol-2-yl)-benzamide] was run?
Its Ki is 2 nM.

For `COc1ccc(N2CCOCC2)c2sc(NC(=O)c3ccc(Cn4ccnc4C)cc3)nc12` [Example 308, N-(4-Methoxy-7-morpholin-4-yl-benzothiazol-2-yl)-4-(2-methyl-imidazol-1-yl-methyl)-benzamide], which Ki is on record?
Its Ki is 0.794 nM.

With `COc1ccc(-c2ccccc2)c2sc(NC(=O)c3ccc(CNCc4cccnc4)cc3)nc12` [Example 107, N-(4-Methoxy-7-phenyl-benzothiazol-2-yl)-4-{[(pyridin-3-ylmethyl)-amino]-methyl}-benzamide hydrochloride salt (1:2)] as the molecule, how does the Ki read?
Its Ki is 1.58 nM.

`CCOCCN(C)Cc1ccc(C(=O)Nc2nc3c(OC)ccc(N4CCOCC4)c3s2)cc1` [Example 304, 4-{[(2-Ethoxy-ethyl)-methyl-amino]-methyl}-N-(4-methoxy-7-morpholin-4-yl-benzothiazol-2-yl)-benzamide] was tested. Which Ki did it give?
Its Ki is 3.16 nM.

For `COc1ccc(-c2ccccc2)c2sc(NC(=O)c3ccc(CO)cc3)nc12` [Example 17, 4-Hydroxymethyl-N-(4-methoxy-7-phenyl-benzothiazol-2-yl)-benzamide], which Ki is on record?
The Ki was 0.501 nM.
